One data set has as its system maize tissues. Briefly: miRNA microarray expression profiling in maize tissues. Also noted: species or system Zea mays. On the procedure:
miRNA microarray in various maize tissues: Tissues from maize inbred line B104 were used for miRNA profiling. Leaf tissues (at V2, V8 and flag leaf stages); immature tassel tissues (0.5 to 2.5 cm length); mature tassel tissues (tassel visible in the whorl); immature ear tissues (0.5 to 2 cm length); and mature ear tissues (visible ear shoot) were collected and immediately submerged in liquid nitrogen and stored at −80° C. Total RNA and low molecular weight RNAs were extracted using a mirVana™ miRNA isolation kit (INVITROGEN; Carlsbad, CA) following the manufacturer's instructions. RNA quality and quantity were assessed by optical density with a NANODROP 2000 spectrophotometer (THERMO SCIENTIFIC; Wilmington, DE) and by gel electrophoresis. miRNA microarray was performed by a commercial provider (LC SCIENCES; Houston, TX) using μParaflo® microfluidic oligonucleotide microarray technology. Zhou et al., (2012) Methods Mol. Biol. 822:153-82. All unique plant miRNA sequences available in MiRBase™ (mirbase.org) were printed on the arrays and used for miRNA profiling. […]

For another data set, the system named is Maize Immature Embryos. Put plainly: Transient AAD1 expression in immature embryos after particle bombardment, ELISA. Type of data set: cell-based, Zea mays. The note with it: 24 hours after particle bombardment. From the text:
Zea mays embryos from inbred line B104 that express AAD1 mRNAs having miRNA target sites within the mRNA were produced. Control tissues having no miRNA target sites in the AAD1 mRNA, or having no AAD1 gene expression cassette, were also produced. Other control tissues were produced that had only a YFP gene expression cassette (and no AAD1 construct). Preparations of plant transformation DNA molecules constructed as described in EXAMPLE 2 were delivered into maize B104 immature embryos via particle bombardment transformation.
Plasmid DNAs of pDAB112375, pDAB112376, pDAB112377, pDAB113016, pDAB100286, pDAB112378 and pDAB112330 were isolated and purified from Escherichia coli by standard techniques, and diluted in TE buffer (10 mM Tris HCl plus 1 mM EDTA, pH 8) to 1.0 μg/μL.
Embryo isolation and culture: (Day 1) Surface-sterilized B104 immature ears (10 to 12 days post-pollination) were used for the isolation of embryos. Excised immature embryos from 3 to 4 ears were pooled into 2 mL microfuge tubes containing 2.0 mL liquid medium (LS basal medium (Linsmaier and Skoog, (1965) Physiologia Plantarum 18:100-27) containing CHU N6 vitamins (Chu et al. (1975) Scientia Sinica 18:659-68), 700 mg/L L-Proline, 68.5 gm/L sucrose, 36 gm/L D(+) glucose, and 1.5 mg/L 2,4-D). After embryo isolation, the liquid medium was removed and discarded. Embryos were removed and placed onto plates (40 embryos per plate) containing a semi-solid osmotic medium (MS basal medium (Murashige and Skoog, (1962) Physiologia Plantarum 15:473-497), 2 mg/L Glycine, 500 μg/L Thiamine, 500 μg/L Pyroxidine, 50 μg/L Nicotinic Acid., 120 gm/L sucrose, 100 mg/L myo-inositol, and 2.4 gm/L GELRITE). The embryos were arranged in a […] within the target area for particle bombardment. Three replicate plates were prepared for each construct to be tested. All plates were incubated at 28° C. under continuous low light (50 μEm^−2 sec^−1) for 24 hours prior to particle bombardment.
Coating gold particles with DNA: (Day 2) Tubes of frozen gold particles glycerol stock were thawed on ice for a few minutes, then vortexed for 2 minutes at high speed until a uniform gold suspension was produced. Gold suspension was pipetted into sterile microcentrifuge tubes (50 μL each), with an intermediate vortexing of the particle stock between each tube to maintain a uniform suspension. 2.5 μg each of appropriate plasmid DNAs were included. […]
ELISA quantification of AAD1 and PAT proteins: Enzyme Linked Immunosorbant Assays (ELISAs) were used to measure the production of AAD1 and PAT proteins in maize cells and stably-transformed tissues. […]
In general terms: An ELISA detects its analyte on a solid surface through an enzyme-linked reagent.

The values that follow come from patent publication US12649925B2, “Tissue-specific expression and hybrid plant production” (Dow AgroSciences LLC, priority 2013, dated 2026).

Turning to “miR156: Zea mays micro-RNA, SEQ ID NO:1 UGACAGAAGAGAGUGAGCAC (expressed or natural sequence)”, the relative expression levels in the data set on maize tissues (Flag Leaf) was 1657; with maize tissues (Immature Ear) it was 112; in the data set with maize tissues (Immature Tassel), 78; in the data set on maize tissues (Leaf V2), 4648; with maize tissues (Leaf V8) it was 1337; in the data set with maize tissues (Mature Ear), 1595. The molecule further returned a relative expression levels in the data set with maize tissues (Mature Tassel) of 2810.

Regarding “miR319: micro-RNA, SEQ ID NO:3 UUGGACUGAAGGGUGCUCCC (expressed or natural sequence)”, the relative expression levels is on record as 16 in the data set on maize tissues (Flag Leaf); 3905 in the data set with maize tissues (Immature Ear); 2078 in the data set on maize tissues (Immature Tassel); 13 with maize tissues (Leaf V2); 8 in the data set on maize tissues (Leaf V8); 4616 in the data set on maize tissues (Mature Ear). In the data set on maize tissues (Mature Tassel), this molecule gave a relative expression levels of 1566.

With “miR529: Zea mays micro-RNA, SEQ ID NO:2 AGAAGAGAGAGAGUACAGCCU (expressed or natural sequence)”, the relative expression levels in the data set on maize tissues (Flag Leaf) was determined as 30; in the data set with maize tissues (Immature Ear), 90; in the data set with maize tissues (Immature Tassel) it was 3174; in the data set with maize tissues (Leaf V2), 199; in the data set on maize tissues (Leaf V8) it was 34; in the data set on maize tissues (Mature Ear), 1405. Also, the relative expression levels in the data set on maize tissues (Mature Tassel) is listed as 1512. In addition, the “level higher in immature tassel tissues than in leaves” value with maize tissues (immature tassel vs leaves) was 16- to 100 fold.

B1: pDAB112375: Transient transformation construct: ZmUbilv2/AAD1 v3/native WT miR529-156 site/ZmPer5 3′UTR (SEQ ID NO:6) (nucleic acid)
DNA: ATGGCTCATGCTGCCCTCAGCCCTCTCTCCCAACGCTTTGAGAGAATAGCTGTCCAGCCACTCACTGGTGTCCTTGGTGCTGAGATCACTGGAGTGGACTTGAGGGAACCACTTGATGACAGCACCTGGAATGAGATATTGGATGCCTTCCACACTTACCAAGTCATCTACTTTCCTGGCCAAGCAATCACCAATGAGCAGCACATTGCATTCTCAAGAAGGTTTGGACCAGTTGATCCAGTGCCTCTTCTCAAGAGCATTGAAGGCTATCCAGAGGTTCAGATGATCCGCAGAGAAGCCAATGAGTCTGGAAGGGTGATTGGTGATGACTGGCACACAGACTCCACTTTCCTTGATGCACCTCCAGCTGCTGTTGTGATGAGGGCCATAGATGTTCCTGAGCATGGCGGAGACACTGGGTTCCTTTCAATGTACACAGCTTGGGAGACCTTGTCTCCAACCATGCAAGCCACCATCGAAGGGCTCAACGTTGTGCACTCTGCCACACGTGTGTTCGGTTCCCTCTACCAAGCACAGAACCGTCGCTTCAGCAACACCTCAGTCAAGGTGATGGATGTTGATGCTGGTGACAGAGAGACAGTCCATCCCTTGGTTGTGACTCATCCTGGCTCTGGAAGGAAAGGCCTTTATGTGAATCAAGTCTACTGTCAGAGAATTGAGGGCATGACAGATGCAGAATCAAAGCCATTGCTTCAGTTCCTCTATGAGCATGCCACCAGATTTGACTTCACTTGCCGTGTGAGGTGGAAGAAAGACCAAGTCCTTGTCTGGGACAACTTGTGCACCATGCACCGTGCTGTTCCTGACTATGCTGGCAAGTTCAGATACTTGACTCGCACCACAGTTGGTGGAGTTAGGCCTGCCCGCTGAGTAGTTAGCTTAATCACCTAGAGCTCGACTCCAGCTGTGCTCTCTCTCTTCTGTCAACTCAGGTAACCTTTAAACTGAGGGCACTGAAGTCGCTTGATGTGCTGAATTGTTTGTGATGTTGGTGGCGTATTTTGTTTAAATAAGTAAGCATGGCTGTGATTTTATCATATGATCGATCTTTGGGGTTTTATTTAACACATTGTAAAATGTGTATCTATTAATAACTCAATGTATAAGATGTGTTCATTCTTCGGTTGCCATAGATCTGCTTATTTGACCTGTGATGTTTTGACTCCAAAAACCAAAATCACAACTCAATAAACTCATGGAATATGTCCACCTGTTTCTTGAAGAGTTCATCTACCATTCCAGTTGGCATTTATCAGTGTTGCAGCGGCGCTGTGCTTTGTAACATAACAATTGTTACGGCATATATCCAA
modifications: pDAB112375 expression cassette; (918)..(952) native tsh4 miR529-156 target site; (967)..(1331) ZmPer5 3′UTR
As to B1, the “Mean AAD1 Amount” value with Maize Immature Embryos (co-bombardment plasmid pDAB112330 (Cry34Ab)) is reported as 58 ng/mL; with Maize Immature Embryos (co-bombardment plasmid pDAB112378 (artificial miRNA)), 51 ng/mL.
